Laboratory results: patent US9382216B2, “Substituted morpholines as modulators for the calcium sensing receptor” (LUPIN LIMITED, priority 2011, dated 2016)
pEC50: −log10 of the molar value. Where a name gives a salt, the structure may show the parent alone.

What follows are compounds tested against T1, hCaSR (Calcium sensing receptor) in stably transfected HEK293 cells (Homo sapiens, UniProt P41180) (assay: In-vitro assay of calcimimetics through modulation of calcium sensing receptor (CaSR): increase in intracellular calcium, FLIPR). Settings: HEK293 cells expressing hCaSR; intracellular calcium (Fluo4NW, FLIPR); 0.3 mM CaCl2; 8-point assay; read-out: EC50 in range.
T1 construct: expressed in transfected cells; host or cells: HEK293 (stably transfected)
T1 sequence (P41180 20-1078): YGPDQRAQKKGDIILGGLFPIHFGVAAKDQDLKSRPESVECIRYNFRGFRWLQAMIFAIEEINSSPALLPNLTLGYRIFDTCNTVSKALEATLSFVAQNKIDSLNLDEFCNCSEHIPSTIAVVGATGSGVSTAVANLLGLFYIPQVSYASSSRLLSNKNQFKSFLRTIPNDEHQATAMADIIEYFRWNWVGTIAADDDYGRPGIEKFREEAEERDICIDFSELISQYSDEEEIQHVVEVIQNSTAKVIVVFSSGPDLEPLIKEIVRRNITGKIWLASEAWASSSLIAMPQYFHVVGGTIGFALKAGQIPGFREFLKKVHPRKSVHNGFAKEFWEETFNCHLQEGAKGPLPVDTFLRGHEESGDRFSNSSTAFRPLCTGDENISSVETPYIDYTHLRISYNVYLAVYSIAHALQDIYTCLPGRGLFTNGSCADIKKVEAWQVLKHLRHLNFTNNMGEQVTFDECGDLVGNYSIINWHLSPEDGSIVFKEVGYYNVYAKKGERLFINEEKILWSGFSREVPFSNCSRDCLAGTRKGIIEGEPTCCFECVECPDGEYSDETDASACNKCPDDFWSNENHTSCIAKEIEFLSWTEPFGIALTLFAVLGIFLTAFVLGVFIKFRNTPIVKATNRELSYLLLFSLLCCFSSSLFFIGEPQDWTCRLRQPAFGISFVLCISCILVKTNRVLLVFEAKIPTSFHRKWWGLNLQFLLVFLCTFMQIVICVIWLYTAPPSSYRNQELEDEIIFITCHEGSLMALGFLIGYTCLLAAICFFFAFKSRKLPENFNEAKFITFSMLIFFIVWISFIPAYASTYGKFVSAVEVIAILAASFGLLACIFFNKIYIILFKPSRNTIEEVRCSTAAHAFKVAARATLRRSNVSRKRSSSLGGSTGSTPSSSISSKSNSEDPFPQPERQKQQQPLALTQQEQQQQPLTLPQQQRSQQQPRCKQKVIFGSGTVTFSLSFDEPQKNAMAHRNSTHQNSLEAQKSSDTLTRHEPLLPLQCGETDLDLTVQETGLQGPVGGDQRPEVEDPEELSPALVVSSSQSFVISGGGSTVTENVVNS
Type: cell-based
Experimental: In-Vitro Assay Method of Calcimemtics Through Modulation of Calcium Sensing Receptor (CaSR):
The ability of the compounds to modulate Calcium sensing receptor is determined by measuring an increase in intracellular calcium [Ca^2+i]. Stably transfected HEK293 cells expressing hCaSR_pTriEx-3 hygro vector are developed. Cells are grown overnight on a 96-well plate to 80% confluency in Ham's F12 containing 20% FBS at 37° C., 5% CO2 Subsequently, cells are washed extensively with 20 mM HEPES buffer containing 126 mM NaCl2, 1 mM MgCl2 and 4 mM KCl2 to remove serum components that might interfere with the assay. Cells are loaded with calcium sensing Fluo4NW dye in HEPES base buffer containing 0.1% BSA and 1 mg/ml glucose for 30 minutes to measure changes in intracellular calcium. The activities of the compounds are measured in FLIPR using 0.3 mM CaCl2 in 20 mM HEPES base buffer. The effectiveness of the compound to modulate receptor activity is determined by calculating the EC50 responses for that compound in an 8-point assay and plotted using GraphPad Prism 5.
The compounds prepared were tested using the above assay procedure and the results obtained are given below.
`C[C@@H](NCC1CN(C2CCCC2)C(=O)CO1)c1cccc2ccccc12` (stereo partly drawn) [Example 76, 4-Cyclopentyl-6-((((R)-1-(naphthalen-1-yl)ethyl)amino)methyl)morpholin-3-one hydrochloride] was tested, and the pEC50 was over 7.70.
`COc1cccc(N2CCOCC2CN[C@H](C)c2cccc3ccccc23)c1` (single isomer, unassigned) [5a] gave a pEC50 of 6.70 to 7.30.
For `C[C@@H](NCC1CN(c2ccc(C(F)(F)F)cc2)CCO1)c1cccc2ccccc12` (single isomer, unassigned) [33b], the pEC50 was 7.30 to 7.70.
In the case of `C[C@@H](NCC1CN(c2cc(C(=O)O)cc(C(F)(F)F)c2)CCO1)c1cccc2ccccc12` (single isomer, unassigned) [Example 150a, hydrochloride], the pEC50 was over 7.70.
With `CC(C)N1CC(CN[C@H](C)c2cccc3ccccc23)OCC1=O` (single isomer, unassigned) [Example 93b, hydrochloride] the pEC50 was 6.70 to 7.30.
In the case of `COc1cccc([C@@H](C)NCC2COCCN2c2cccc(OC)c2)c1` (single isomer, unassigned) [6a], the pEC50 was 7.30 to 7.70.
`C[C@@H](NCC1CN(CC2CCCC2)C(=O)CO1)c1cccc2ccccc12` (single isomer, unassigned) [Example-69a] gave a pEC50 of 6.70 to 7.30.
With `COc1cccc([C@@H](C)NCC2CN(c3ccc(F)c(F)c3)CCO2)c1` (stereo partly drawn) [Example 135, (1R)-N-((4-(3,4-Difluorophenyl)morpholin-2-yl)methyl)-1-(3-methoxyphenyl)ethanamine hydrochloride] the pEC50 was over 7.70.
`COc1cccc([C@@H](C)NCC2CN(c3cccc(C)c3)CCO2)c1` (stereo partly drawn) [Example 134, (1R)-1-(3-Methoxyphenyl)-N-((4-(m-tolyl)morpholin-2-yl)methyl)ethanamine hydrochloride] gave a pEC50 of over 7.70.
`COc1ccc(N2CC(CN[C@H](C)c3cccc4ccccc34)OCC2=O)cc1F` (stereo partly drawn) [compound 61, 4-(3-Fluoro-4-methoxyphenyl)-6-((((R)-1-(naphthalen-1-yl)ethyl)amino)methyl)morpholin-3-one hydrochloride] gave a pEC50 of over 7.70.
Compound `C[C@@H](NCC1CN(Cc2cccc(F)c2F)C(=O)CO1)c1cccc2ccccc12` (stereo partly drawn) [Example 81, 4-(2,3-Difluorobenzyl)-6-((((R)-1-(naphthalen-1-yl)ethyl)amino)methyl)morpholin-3-one hydrochloride] has a pEC50 of over 7.70.
Work on `C[C@@H](NCC1CN(Cc2cc(F)ccc2F)C(=O)CO1)c1cccc2ccccc12` (single isomer, unassigned) [Example 72a, hydrochloride] yielded a pEC50 of over 7.70.
`COc1cccc(N2CCOC(CN[C@H](C)c3cccc4ccccc34)C2)c1` (single isomer, unassigned) [25a] showed a pEC50 of over 7.70.
In the case of `COc1cccc([C@@H](C)NCC2CN(c3ccc(OC)c(F)c3)C(=O)CO2)c1` (stereo partly drawn) [Example-50, 4-(3-Fluoro-4-methoxyphenyl)-6-((((R)-1-(3-methoxyphenyl)ethyl)amino)methyl)morpholin-3-one], the pEC50 was 7.30 to 7.70.
`C[C@@H](NCC1CN(Cc2cccc(C(F)(F)F)c2)C(=O)CO1)c1cccc2ccccc12` (single isomer, unassigned) [Example 70a, hydrochloride] was tested, and the pEC50 was over 7.70.
Work on `C[C@@H](NCC1CN(c2cccc(C(F)(F)F)c2)CCO1)c1cccc2ccccc12` (stereo partly shown) [compound 22] yielded a pEC50 of 7.30 to 7.70.
For `COc1cc([C@@H](C)NCC2CN(C3CCCC3)C(=O)CO2)ccc1F` (stereo partly drawn) [Example 96, 4-Cyclopentyl-6-((((R)-1-(4-fluoro-3-methoxyphenyl)ethyl)amino)methyl)morpholin-3-one hydrochloride], the pEC50 was 6.70 to 7.30.
Work on `Cc1cc(N2CCOC(CN[C@H](C)c3cccc4ccccc34)C2)ccc1C(=O)O` (single isomer, unassigned) [Example 136b, hydrochloride] yielded a pEC50 of 6.70 to 7.30.
`COc1cccc(N2CCOCC2CN[C@H](C)c2cccc3ccccc23)c1` (single isomer, unassigned) [5b] was tested, and the pEC50 was over 7.70.
In the case of `C[C@@H](NCC1CN(CCc2ccc(F)cc2)C(=O)CO1)c1cccc2ccccc12` (single isomer, unassigned) [Example 98a, hydrochloride], the pEC50 was over 7.70.
`C[C@@H](NCC1CN(c2ccc(F)c(F)c2)C(=O)CO1)c1cccc2ccccc12` (single isomer, unassigned) [62a, hydrochloride] was tested, and the pEC50 was over 7.70.
`C[C@@H](NCC1COCCN1Cc1cccc(C(F)(F)F)c1)c1cccc2ccccc12` (single isomer, unassigned) [Example-35b] was tested, and the pEC50 was 7.30 to 7.70.
`C[C@@H](NCC1COCCN1c1ccccc1)c1cccc2ccccc12` (single isomer, unassigned) [Example-1a, hydrochloride] showed a pEC50 of over 7.70.
In the case of `COc1cccc([C@@H](C)NCC2COCCN2c2cccc(C)c2)c1` (single isomer, unassigned) [10b], the pEC50 was over 7.70.
`C[C@@H](NCC1CN(c2ccc(C(F)(F)F)cc2)CCO1)c1cccc2ccccc12` (single isomer, unassigned) [33a] was tested, and the pEC50 was over 7.70.
Compound `C[C@@H](NCC1CN(c2cccc(F)c2F)C(=O)CO1)c1cccc2ccccc12` (stereo partly drawn) [compound 54, 4-(2,3-Difluorophenyl)-6-((((R)-1-(naphthalen-1-yl)ethyl)amino)methyl)morpholin-3-one hydrochloride] has a pEC50 of over 7.70.
With `Cc1ccc(N2CCOC(CCN[C@H](C)c3cccc4ccccc34)C2)cc1CCC(=O)O` (single isomer, unassigned) [Example 108a, hydrochloride] the pEC50 was 7.30 to 7.70.
Compound `COc1cccc([C@@H](C)NCC2COCCN2c2cccc(C)c2)c1` (single isomer, unassigned) [10a] has a pEC50 of 6.70 to 7.30.
For `C[C@@H](NCC1COCCN1c1cccc(C(F)(F)F)c1)c1cccc2ccccc12` (single isomer, unassigned) [Example-2a], the pEC50 was over 7.70.
`Cc1cccc(N2CCOCC2CN[C@H](C)c2cccc3ccccc23)c1` (stereo partly drawn) [Example 120, (1R)-1-(Naphthalen-1-yl)-N-((4-(m-tolyl)morpholin-3-yl)methyl)ethanamine hydrochloride] was tested, and the pEC50 was over 7.70.
With `C[C@@H](NCC1COCCN1Cc1ccccc1)c1cccc2ccccc12` (single isomer, unassigned) [Example-36a] the pEC50 was 6.70 to 7.30.
For `C[C@@H](NCC1COCCN1c1ccc(F)cc1)c1cccc2ccccc12` (stereo partly shown) [compound 17], the pEC50 was 7.30 to 7.70.
`C[C@@H](NCCC1CN(c2cccc(OCC(=O)O)c2)CCO1)c1cccc2ccccc12` (single isomer, unassigned) [Example 113a, hydrochloride] gave a pEC50 of 6.70 to 7.30.
In the case of `C[C@@H](NCC1CN(c2ccc(C(=O)O)cc2)CCO1)c1cccc2ccccc12` (stereo partly drawn) [Example 147, 4-(2-((((R)-1-(Naphthalen-1-yl)ethyl)amino)methyl)morpholino)benzoic acid hydrochloride], the pEC50 was 6.70 to 7.30.
For `C[C@@H](NCC1COCCN1c1cccc(F)c1)c1cccc2ccccc12` (stereo partly shown) [Example-9], the pEC50 was over 7.70.
With `COc1cccc([C@@H](C)NCC2COCCN2Cc2ccccc2)c1` (single isomer, unassigned) [Example-37b] the pEC50 was 6.70 to 7.30.
Compound `COc1cccc([C@@H](C)NCC2COCCN2c2ccc(F)c(F)c2)c1` (stereo partly shown) [compound 12] has a pEC50 of 6.70 to 7.30.
`Cc1ccc(N2CCOC(CN[C@H](C)c3cccc4ccccc34)C2)cc1` (single isomer, unassigned) [27a] gave a pEC50 of 6.70 to 7.30.
`COc1cc([C@@H](C)NCC2CN(c3ccc(F)c(F)c3)C(=O)CO2)ccc1F` (single isomer, unassigned) [Example 152b, hydrochloride] was tested, and the pEC50 was 6.70 to 7.30.
With `COc1cccc([C@@H](C)NCC2COCCN2c2ccc(C)cc2)c1` (stereo partly shown) [compound 8] the pEC50 was 6.70 to 7.30.
